What was measured:
[1] = test system: oocytes into which cRNA was not injected; experiment: Two-electrode membrane potential fixation measurement of membrane current in oocytes not injected with cRNA; format: cell-based, Xenopus; conditions: data not shown
Protocol: (§1) Female Xenopus (purchased from Watanabe Zoshoku) was bred in a fish tank until oocytes were isolated. The Xenopus was anesthetized with tricain methanesulfonate (MS 222, Sigma) dissolved in deionized water in a concentration of 1 g/L followed by buffering with NaHCO3 (500 mg/L). Anatomy was conducted by hand and oocytes in stages V and VI were recovered from ovary and incubated (for 30 minutes to 1 hour) in a 0.2% collagenase S-1 (Nitta Gelatin) until dissociation took place. After treating with collagenase, the oocytes were washed; follicles were removed; selection was conducted under a microscope; and incubation was carried out at 18° C. for one night.

mGluRTγa = biological target: T1, mGluRTγa (Rattus norvegicus, UniProt P23385); experiment: Two-electrode membrane potential fixation measurement of calcium-dependent chloride current in Xenopus oocytes expressing mGluRTγa; format: cell-based; conditions: potential fixed at -70 mV
T1 construct: expressed in transfected cells; host or cells: Xenopus oocytes injected with cRNA transcribed from pCRII-TOPO/mGluRTγ
Protocol: (§2) Oocyte-expressing strain of Xenopus was used for analysis of function of mGluR1 mRNA derived from circumvallate papilla of rats.
as §1
(§3) Since the polymerase remains […] in PCR fragments, PCR-amplified mGluRTβa and mGluRTγa template DNA were inserted into pCRII-TOPO vector (Invitrogen) by a TOPO-TA cloning reaction. pCRII-TOPO/mGluRTγ vector and pCRII-TOPO/mGluRTβ vector were made into straight lines using EcoRV and XbaI, respectively, extracted with a mixture of phenol and chloroform and precipitated with ethanol together with sodium acetate. After a sequence analysis, cRNA was prepared using a transcription kit for Sp6 promoter made by Ambion (mMESSAGE mMACHINE kit) binding to pCRII-TOPO promoter.

mGluRTβa = biological target: T2, mGluRTβa (Rattus norvegicus, UniProt P23385); experiment: Two-electrode membrane potential fixation measurement of calcium-dependent chloride current in Xenopus oocytes expressing mGluRTβa; format: cell-based; conditions: medium containing 50 mM, potential fixed at -70 mV, current disappeared on substituting the medium again, FIG. 6
T2 construct: expressed in transfected cells; host or cells: Xenopus oocytes injected with cRNA transcribed from pCRII-TOPO/mGluRTβ
Protocol: as §2, §1, §3

vagal gastric branch = experiment: Vagal gastric branch afferent nerve activity recording after administration to stomach; format: in vivo, rat; conditions: 150 mM administered to stomach; urethane-anesthetized fasted Wistar rats; FIG. 4
Protocol: Rats (Wistar strain, males, 8 to 10 weeks age; Nippon Charles Liver) were fasted for 18 hours, laparotomy was conducted under anesthetization with urethane (1 g/kg; i.p.) and vagal gastric branch was exfoliated to an extent of about 5 mm. After vagal bundle was cut, it was placed on a small operation stand (8×6 mm), fat and bonded tissues around that were carefully detached and the terminal fiber at the side of organ was placed on a dipole electrode made of platinum for recording and insulated from the surrounding tissues by a mixture of liquid paraffin-vaseline (1:1). […]
Nerve action potential was amplified to an extent of 10,000-fold by a micropotential amplifier (DAM-80 manufactured by WPI); and after noise was reduced by a Vessel filter (4-pole, High Cut 10 Hz, Low Cut 1 KHz), it was subjected to an A/D conversion (Powerlab 4sp, manufactured by ADI Instruments, Inc.) and incorporated into a computer (sampling rate 3 KHz, iBook). At the same time, an amplified signal was separated by a window discriminator (DSE-435 manufactured by Daiya Medical Co., Ltd.) into a noise component and a nerve signal component together with monitoring by an oscilloscope, integrated for 5 seconds by a spike counter (DSE-335P manufactured by Daiya Medical Co., Ltd.) and recorded in a chart recorder (WT-465G manufactured by Nippon Koden Corporation). […]

T2 sequence (P23385 410-1199): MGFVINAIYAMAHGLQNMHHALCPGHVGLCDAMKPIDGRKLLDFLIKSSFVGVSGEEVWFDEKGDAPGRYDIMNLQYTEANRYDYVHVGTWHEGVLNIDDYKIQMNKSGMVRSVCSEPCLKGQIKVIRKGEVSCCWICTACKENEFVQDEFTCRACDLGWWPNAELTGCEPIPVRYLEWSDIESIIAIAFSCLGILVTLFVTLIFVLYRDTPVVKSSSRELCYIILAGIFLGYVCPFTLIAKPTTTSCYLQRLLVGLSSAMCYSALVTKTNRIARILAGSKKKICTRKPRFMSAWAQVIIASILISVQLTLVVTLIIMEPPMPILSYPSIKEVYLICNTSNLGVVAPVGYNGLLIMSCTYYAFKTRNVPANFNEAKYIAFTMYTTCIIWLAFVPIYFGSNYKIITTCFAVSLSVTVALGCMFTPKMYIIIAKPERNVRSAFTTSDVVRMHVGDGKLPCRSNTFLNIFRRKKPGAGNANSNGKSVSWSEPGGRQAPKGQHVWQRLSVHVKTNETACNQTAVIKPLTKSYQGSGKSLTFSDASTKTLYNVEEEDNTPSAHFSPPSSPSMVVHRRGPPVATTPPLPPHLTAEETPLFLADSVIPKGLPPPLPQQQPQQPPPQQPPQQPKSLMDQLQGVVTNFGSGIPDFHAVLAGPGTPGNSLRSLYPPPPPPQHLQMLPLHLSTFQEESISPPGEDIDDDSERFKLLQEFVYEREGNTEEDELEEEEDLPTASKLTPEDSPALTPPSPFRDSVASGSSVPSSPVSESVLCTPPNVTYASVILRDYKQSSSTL
T1 sequence (P23385 410-1199): as above

Membrane current (calcium-dependent chloride current) (mGluRTγa): same introvert current was also observed | Membrane current (calcium-dependent chloride current) (mGluRTβa): continuous introvert current was induced
Compound: N[C@@H](CCC(=O)[O-])C(=O)[O-].[Na+].[Na+] [MSG, sodium L-glutamate]
Membrane current (calcium-dependent chloride current) [1]: not observed | Centripetal activity of vagal gastric branch (vagal gastric branch): accelerated
